Holding throughout (type): binding
One experiment addresses T1, NPY2R (Homo sapiens, UniProt P49146).
T1 construct: purchased Promega (in-house HiBiT-GPCR construct library, NanoBRET)
T1 sequence (P49146 1-381): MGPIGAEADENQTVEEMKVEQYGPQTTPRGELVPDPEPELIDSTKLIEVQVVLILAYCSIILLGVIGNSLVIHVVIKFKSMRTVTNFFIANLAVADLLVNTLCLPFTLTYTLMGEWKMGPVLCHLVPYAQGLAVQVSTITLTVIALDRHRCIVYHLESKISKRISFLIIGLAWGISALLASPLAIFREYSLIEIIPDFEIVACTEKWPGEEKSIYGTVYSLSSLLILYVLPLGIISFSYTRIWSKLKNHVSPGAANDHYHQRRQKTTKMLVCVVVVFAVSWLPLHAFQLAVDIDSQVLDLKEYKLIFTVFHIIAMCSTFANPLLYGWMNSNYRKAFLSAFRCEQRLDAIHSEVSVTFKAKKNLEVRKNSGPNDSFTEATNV
The experiment is described as follows: NanoBRET screen HiBiT-NPY2R in HEK293. The method, then:
(§1) Each tracer candidate was screened across the entire library of HiBiT-GPCR constructs using NanoBRET as the detection modality. As depicted in Figure 4A, the specificity of interactions was evaluated through decrease in BRET due to competitive displacement of a bound tracer by excess parental compound. Each tracer was analyzed for binding to each HiBiT-GPCR fusion in the absence and in the presence of competing parental compound. Briefly, HEK293 cells were transfected with HiBiT-GPCR constructs diluted into promoterless DNA to reduce expression and maximize translocation to the cell surface. Each tracer candidate was then screened at concentrations of 1 μM and 0.1 μM across cells expressing these fusions. Cells were treated for 1.5 h with tracer either alone or in the presence of 20 μM competing parental compound (i.e., control). BRET was measured upon addition of purified LgBiT and subsequent complementation with HiBiT genetically fused to a GPCR. The specificity of interactions was assessed through a decrease in BRET signal due to competitive displacement of the bound tracer. To further gauge the robustness of these interactions, the fold response over the control (i.e., BRETtracer/BRETcontrol) was calculated. We chose a 1.5-fold response, which translates to ≥7-fold signal over noise as the minimal threshold required to score an interaction as positive. […]. Below we highlight the screening results obtained for our exemplary fluorescent tracers based on Clozapine, Amitriptyline and AZD1283.
(§2) HiBiT-GPCR DNA constructs were diluted in 10 mM Tris pH 8 to a final concentration of 0.01 μg/μL, arrayed in 96-well plates and stored at −20 °C. For transfection, HEK293 cells were suspended in Opti-MEM (without phenol red) supplemented with 2% fetal bovine serum (Seradigm) and 100 units/mL penicillin–streptomycin (Gibco) at a final concentration of 220,000 cells/mL and dispensed into white 96-well plates at 90 μL/well. Subsequent transfections and screens were carried using an Agilent Bravo Automated Liquid Handling Platform. First, the 96-well HiBiT DNA arrays were diluted 25-fold in Opti-MEM (without serum or phenol red) to a final concentration of 0.0004 μg/μL and 20 μL of the diluted DNAs were transferred into new 96-well plates. Next, promoterless carrier DNA (1 μg/μL) was diluted 25-fold (0.04 μg/μL) and then dispensed into the diluted arrays at 20 μL/well. Following brief mixing, Viafect transfection reagent (Promega) diluted 16-fold into Opti-MEM was dispensed into the plates at 40 μL/well. After mixing by pipetting, plates were incubated for 10 min on the pipetting station deck. The DNA-transfection reagent complexes were then added to plates containing cells. To facilitate the screen, 10 μL of DNA-transfection reagent complexes were added in duplicates to the top 4 and bottom 4 rows, resulting in two identical 48-well arrays per plate. Plates with transfected cells were incubated for 18–20 h at 37 °C/5% CO2. A screen of each tracer across the entire library using two different concentrations requires duplicate plates of transfected cells. Depending on the number of tracers being screened, transfections can be scaled up using the same ratios. The next day, for each tracer, four 20× screening solutions in tracer dilution buffer (Promega) were prepared: two duplicates at final concentration of 20 μM and two duplicates at a final concentration of 2 μM. A competing unmodified compound was added to one of each duplicate at a final concentration of 400 μM. The four resulting solutions were diluted 4-fold in Opti-MEM without serum or phenol red to generate 5× solutions (5 µM and 0.5 µM tracer +/− 100 μM competing compound). To screen the library, a BioTek MultiFlo FX liquid dispenser was used to dispense 22.5 µL of tracer solution to the top 4 rows and 22.5 µL tracer + competing compound solution to the 4 bottom rows. Plates were briefly mixed on an orbital shaker and incubated for 1.5 h at room temperature. […]
For orientation: BRET reads energy transfer from a luciferase to a nearby fluorophore.

The next experiment deals with T2, OXTR (Homo sapiens, UniProt P30559).
T2 construct: purchased Promega (in-house HiBiT-GPCR construct library, NanoBRET)
T2 sequence (P30559 1-389): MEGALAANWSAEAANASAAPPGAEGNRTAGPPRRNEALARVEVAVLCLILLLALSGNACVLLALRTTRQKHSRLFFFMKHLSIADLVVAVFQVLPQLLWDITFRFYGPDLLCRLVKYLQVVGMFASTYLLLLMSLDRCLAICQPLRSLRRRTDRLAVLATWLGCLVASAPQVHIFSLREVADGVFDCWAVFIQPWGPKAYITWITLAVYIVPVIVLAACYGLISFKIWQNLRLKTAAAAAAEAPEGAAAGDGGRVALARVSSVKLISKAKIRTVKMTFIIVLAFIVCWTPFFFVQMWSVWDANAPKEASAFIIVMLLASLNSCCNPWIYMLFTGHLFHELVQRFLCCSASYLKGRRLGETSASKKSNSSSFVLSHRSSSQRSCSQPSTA
Nature of the experiment: NanoBRET screen HiBiT-OXTR in HEK293. The method, then:
as §1, §2

In another experiment the target is T3, CCR8 (Homo sapiens, UniProt P51685).
T3 construct: purchased Promega (in-house HiBiT-GPCR construct library, NanoBRET)
T3 sequence (P51685 whole entry): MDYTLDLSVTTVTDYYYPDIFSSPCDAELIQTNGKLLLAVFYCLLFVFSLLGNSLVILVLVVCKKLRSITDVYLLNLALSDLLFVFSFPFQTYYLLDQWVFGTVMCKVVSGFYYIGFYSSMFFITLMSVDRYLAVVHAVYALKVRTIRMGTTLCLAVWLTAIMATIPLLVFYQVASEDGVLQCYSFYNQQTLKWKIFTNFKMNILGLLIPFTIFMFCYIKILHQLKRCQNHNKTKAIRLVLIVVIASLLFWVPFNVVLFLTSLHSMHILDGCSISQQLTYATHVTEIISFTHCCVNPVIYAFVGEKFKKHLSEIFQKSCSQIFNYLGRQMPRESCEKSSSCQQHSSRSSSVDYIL
The experiment is described as follows: NanoBRET screen HiBiT-CCR8 in HEK293. The method, then:
as §1, §2

The target in the next experiment is T4, C5AR2 (Homo sapiens, UniProt Q9P296).
T4 construct: purchased Promega (in-house HiBiT-GPCR construct library, NanoBRET)
T4 sequence (Q9P296 whole entry): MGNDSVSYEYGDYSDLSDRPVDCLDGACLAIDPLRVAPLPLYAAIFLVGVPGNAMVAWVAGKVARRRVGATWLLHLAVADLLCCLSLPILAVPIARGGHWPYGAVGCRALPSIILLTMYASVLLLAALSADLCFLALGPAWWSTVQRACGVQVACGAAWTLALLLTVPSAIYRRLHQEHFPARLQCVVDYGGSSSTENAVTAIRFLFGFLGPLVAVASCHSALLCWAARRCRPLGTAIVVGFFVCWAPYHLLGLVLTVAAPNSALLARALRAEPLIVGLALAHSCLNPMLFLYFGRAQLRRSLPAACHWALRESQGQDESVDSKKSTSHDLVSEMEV
Nature of the experiment: NanoBRET screen HiBiT-C5AR2 in HEK293. The method, then: as §1, §2

As to `CN1CCN(C2=Nc3cc(Cl)ccc3N(CC(=O)NCCOCCOCCOCCOCCNC(=O)CCc3ccc4n3[B-](F)(F)[N+]3=C(c5ccc[nH]5)C=CC3=C4)c3ccccc32)CC1` [Clozapine-c-2-NB590], the “NanoBRET Fold Response” value on NPY2R (NPY2R, 0.1μM tracer) is given as 1.01; on NPY2R (NPY2R, 1μM tracer) it was 0.99; at OXTR (OXTR, 0.1μM tracer), 0.97; at OXTR (OXTR, 1μM tracer) it was 0.96; at CCR8 (CCR8, 0.1μM tracer), 0.97; on CCR8 (CCR8, 1μM tracer), 0.96. Besides, the “NanoBRET Fold Response” value is reported as 0.99 on C5AR2 (C5AR2, 0.1μM tracer) and 1.00 at C5AR2 (C5AR2, 1μM tracer).

`O=C(CCc1ccc2n1[B-](F)(F)[N+]1=C(c3ccc[nH]3)C=CC1=C2)NCc1ccc(C(=O)NCCOCCC(=O)N[C@@H]2CC[C@@]3(O)[C@H]4Cc5ccc(O)c6c5[C@@]3(CCN4CC3CC3)[C@H]2O6)cc1` [Naltrexone-3-NB590]: the “NanoBRET Fold Response” value at NPY2R (NPY2R, tracer 0.1μM) amounted to 1.05; at NPY2R (NPY2R, tracer 1μM), 0.96; at OXTR (OXTR, tracer 0.1μM), 0.99; on OXTR (OXTR, tracer 1μM), 0.91; at CCR8 (CCR8, tracer 0.1μM), 1.14; on CCR8 (CCR8, tracer 1μM), 1.02. In addition, the “NanoBRET Fold Response” value was 0.95 on C5AR2 (C5AR2, tracer 0.1μM) and 1.01 on C5AR2 (C5AR2, tracer 1μM).

As to `CC(C)N(CC[C@H](c1ccccc1)c1cc(CCNC(=O)CCOCCOCCOCCOCCNC(=O)CCc2ccc3n2[B-](F)(F)[N+]2=C(c4ccc[nH]4)C=CC2=C3)ccc1O)C(C)C` [Tolterodine-2-NB590], the “NanoBRET Fold Response” value on NPY2R (NPY2R, tracer 0.1μM) came to 1.01; at NPY2R (NPY2R, tracer 1μM), 0.93; at OXTR (OXTR, tracer 0.1μM) it was 0.97; at OXTR (OXTR, tracer 1μM) it was 0.94; at CCR8 (CCR8, tracer 0.1μM), 0.82; at CCR8 (CCR8, tracer 1μM), 1.07. Besides, the “NanoBRET Fold Response” value is given as 0.98 on C5AR2 (C5AR2, tracer 0.1μM) and 0.92 at C5AR2 (C5AR2, tracer 1μM).

As to `Cc1nc2n(c(=O)c1CCN1CCC(c3noc4cc(F)ccc34)CC1)CCCC2OC(=O)NCCOCCOCCOCCOCCNC(=O)CCc1ccc2n1[B-](F)(F)[N+]1=C(c3ccc[nH]3)C=CC1=C2` (stereo not drawn) [Risperidone-2-NB590], the “NanoBRET Fold Response” value at NPY2R (NPY2R, tracer 0.1μM) is reported as 1.07; at NPY2R (NPY2R, tracer 1μM), 0.98; at OXTR (OXTR, tracer 0.1μM) it was 0.97; on OXTR (OXTR, tracer 1μM), 0.97; at CCR8 (CCR8, tracer 0.1μM), 0.98; at CCR8 (CCR8, tracer 1μM), 0.89. Further, the “NanoBRET Fold Response” value at C5AR2 (C5AR2, tracer 0.1μM) is 1.06; at C5AR2 (C5AR2, tracer 1μM), 1.07.

Take `O=C(CCOCCOCCOCCOCCNC(=O)CCc1ccc2n1[B-](F)(F)[N+]1=C(c3ccc[nH]3)C=CC1=C2)NCCCN1CCN(C2=Nc3cc(Cl)ccc3Nc3ccccc32)CC1` [Clozapine-a-2-NB590]: the “NanoBRET Fold Response” value on NPY2R (NPY2R, 0.1μM tracer) is 0.94; on NPY2R (NPY2R, 1μM tracer), 1.11; on OXTR (OXTR, 0.1μM tracer), 1.03; at OXTR (OXTR, 1μM tracer), 1.01; on CCR8 (CCR8, 0.1μM tracer) it was 1.02; at CCR8 (CCR8, 1μM tracer), 0.93. Moreover, the “NanoBRET Fold Response” value was found to be 0.93 on C5AR2 (C5AR2, 0.1μM tracer) and 1.21 on C5AR2 (C5AR2, 1μM tracer).

Consider `COc1ccc2[nH]c(-c3ccc(CNC(=O)CCOCCOCCOCCOCCNC(=O)CCc4ccc5n4[B-](F)(F)[N+]4=C(c6ccc[nH]6)C=CC4=C5)cc3)c(CCNC(C)=O)c2n1` [AzomelatoninICO9-2-NB590], for which the “NanoBRET Fold Response” value at NPY2R (0.1μM tracer) is listed as 0.99; at NPY2R (1μM tracer), 0.88; at OXTR (0.1μM tracer) it was 0.99; on OXTR (1μM tracer), 0.87; on CCR8 (0.1μM tracer), 0.68; on CCR8 (1μM tracer), 1.10. The “NanoBRET Fold Response” value on C5AR2 (0.1μM tracer) was 1.13; on C5AR2 (1μM tracer), 0.89.

On to `CN1CCN(C2=Nc3cc(Cl)ccc3Nc3ccc(CNC(=O)CCOCCOCCOCCOCCNC(=O)CCc4ccc5n4[B-](F)(F)[N+]4=C(c6ccc[nH]6)C=CC4=C5)cc32)CC1` [Clozapine-b-2-NB590], for which the “NanoBRET Fold Response” value is 1.00 at NPY2R (NPY2R, 0.1μM tracer); 1.02 on NPY2R (NPY2R, 1μM tracer); 1.05 at OXTR (OXTR, 0.1μM tracer); 1.03 at OXTR (OXTR, 1μM tracer); 0.88 at CCR8 (CCR8, 0.1μM tracer); 0.89 on CCR8 (CCR8, 1μM tracer). For the same molecule, the “NanoBRET Fold Response” value on C5AR2 (C5AR2, 0.1μM tracer) worked out at 0.99; at C5AR2 (C5AR2, 1μM tracer) it was 1.01.

Turning to `COc1ccccc1N1CCN(CCCCN2C(=O)c3ccc(CNC(=O)CCOCCNC(=O)c4ccc(CNC(=O)CCc5ccc6n5[B-](F)(F)[N+]5=C(c7ccc[nH]7)C=CC5=C6)cc4)cc3C2=O)CC1` [NAN-190-3-NB590], the “NanoBRET Fold Response” value on NPY2R (NPY2R, tracer 0.1μM) was 1.05; on NPY2R (NPY2R, tracer 1μM), 1.07; at OXTR (OXTR, tracer 0.1μM), 1.10; on OXTR (OXTR, tracer 1μM) it was 1.05; at CCR8 (CCR8, tracer 0.1μM), 0.67; on CCR8 (CCR8, tracer 1μM), 1.01. Further, the “NanoBRET Fold Response” value is 0.87 on C5AR2 (C5AR2, tracer 0.1μM) and 1.07 at C5AR2 (C5AR2, tracer 1μM).

As for `N#CN=C(NCCCOc1cccc(CN2CCCCC2)c1)NCCNC(=O)CCOCCOCCOCCOCCNC(=O)CCc1ccc2n1[B-](F)(F)[N+]1=C(c3ccc[nH]3)C=CC1=C2` [Aminopotentidine-2-NB590], the “NanoBRET Fold Response” value at NPY2R (NPY2R, tracer 0.1μM) worked out at 0.98; on NPY2R (NPY2R, tracer 1μM) it was 1.00; at OXTR (OXTR, tracer 0.1μM), 1.06; on OXTR (OXTR, tracer 1μM) it was 1.04; on CCR8 (CCR8, tracer 0.1μM) it was 0.99; at CCR8 (CCR8, tracer 1μM), 0.89. The “NanoBRET Fold Response” value on C5AR2 (C5AR2, tracer 0.1μM) was 1.06; at C5AR2 (C5AR2, tracer 1μM), 1.03.

Consider `COc1ccccc1N1CCN(CCCCN2C(=O)c3ccc(CNC(=O)CCOCCOCCOCCOCCNC(=O)CCc4ccc5n4[B-](F)(F)[N+]4=C(c6ccc[nH]6)C=CC4=C5)cc3C2=O)CC1` [NAN-190-2-NB590], for which the “NanoBRET Fold Response” value came to 1.00 on NPY2R (NPY2R, tracer 0.1μM); 0.92 at NPY2R (NPY2R, tracer 1μM); 0.96 on OXTR (OXTR, tracer 0.1μM); 0.92 at CCR8 (CCR8, tracer 0.1μM); 0.92 at CCR8 (CCR8, tracer 1μM); 1.02 on C5AR2 (C5AR2, tracer 0.1μM).

For the origin of these results see paper PMC8151276, “An Integrated Approach toward NanoBRET Tracers for Analysis of GPCR Ligand Engagement” (Molecules, 2021).
